Data as given in BigSolDB 2.1.

CCCCS(=O)(=O)N[C@@H](Cc1ccc(OCCCCC2CCNCC2)cc1)C(=O)O
solubility (mole fraction)
Settings | 278.15 K | 283.15 K | 288.15 K | 293.15 K | 298.15 K | 303.15 K | 308.15 K | 313.15 K | 318.15 K | 323.15 K
in ethanol | 0.000129 | 0.000156 | 0.000183 | 0.000216 | 0.00025 | 0.000288 | 0.000329 | 0.000373 | 0.000427 | 0.00049
in ethylene glycol | 4.7e-05 | 5.7e-05 | 6.77e-05 | 8.02e-05 | 9.46e-05 | 0.000109 | 0.000125 | 0.000142 | 0.00016 | 0.000181
in isopropanol | 7.48e-05 | 9.32e-05 | 0.000108 | 0.00013 | 0.000153 | 0.000176 | 0.0002 | 0.00023 | 0.000265 | 0.000301
in methanol | 0.000306 | 0.000375 | 0.000443 | 0.00052 | 0.000617 | 0.00071 | 0.000836 | 0.000957 | 0.0011 | 0.00125
in water | 9.32e-07 | 1.1e-06 | 1.32e-06 | 1.55e-06 | 1.83e-06 | 2.08e-06 | 2.42e-06 | 2.75e-06 | 3.14e-06 | 3.59e-06
